This is an account of results in patent US11964984B2, “TXNIP-TRX complex inhibitors and methods of using the same” (CITY OF HOPE, priority 2020, dated 2024).

One assay concerns TXNIP mRNA. In words: TXNIP mRNA levels in murine MIN6 pancreatic beta cells (RT-PCR). The settings on record: 25 mM glucose, 72 hours. Format: cell-based, mouse. Here is the method:
FIGS. 4A-4B. […] MIN6 cells were cultured under 25 mM glucose with C30 and C38 at the indicated concentrations for 72 hours. Total RNA was prepared. RT-PCR was performed and data shown are the mean±SEM from triplicates. Statistical analysis was performed for each column vs. HG DMSO using one-way ANOVA: *p<0.0001. […] MIN6 cells were cultured under 25 mM glucose and treated with C30 and C38 at the indicated concentrations for 72 hours. Total RNA was prepared. RT-PCR was performed and data shown are the mean±SEM from triplicates. Statistical analysis was performed for each column vs. HG DMSO using one-way ANOVA: *p<0.0001.
To ascertain the relevance to pancreatic beta cells, we tested the effects of the lead compounds on key target gene mRNA levels in murine MIN6 pancreatic beta cells.
RNA extraction and quantitative RT-PCR. RNA was extracted using the Direct-zol™ RNA MiniPrep Plus (Zymo Research). Reverse transcription of RNA samples into cDNA was performed using the GeneAmp RNA PCR Kit (Applied Biosystems), dNTP (from Roche Applied Science), Rnase inhibitor, MULV Reverse Transcriptase and Random hexamers reagent (all from Invitrogen). Diluted cDNA was quantified using real-time PCR performed with Power SYBR Green qPCR MasterMix (Applied Biosystem) and 7500 real-time PCR system (Applied Biosystems). The HPRT1 gene was used as an internal control.

The subject of another assay is THP1 cells. The assay is described as follows: RNA-seq transcriptome profiling of THP1 cells in high glucose (differential expression, GO, GSEA). The class given is cell-based, human. The settings on record: for biological processes (BPs) suppressed (GSEA): HG treated THP1 cells; for number of downregulated genes, compound+HG versus HG / number of upregulated genes, compound+HG versus HG / rank of TXNIP gene among differentially expressed genes / number of HG-induced genes inhibited by the compound (overlap): THP1, 25 mM glucose; for number of downregulated genes, compound+HG versus HG / number of upregulated genes, compound+HG versus HG / rank of TXNIP gene among differentially expressed genes / functions of downregulated genes (Gene ontology analysis): 5 uM; for number of downregulated genes, compound+HG versus HG / number of upregulated genes, compound+HG versus HG / functions of downregulated genes (Gene ontology analysis): fold change ≥2 and FDR<5%; for rank of TXNIP gene among differentially expressed genes: p-value close to 0; for number of HG-induced genes inhibited by the compound (overlap): 72 hours, 2.5 um compound, FC >2 or <0.5, FDR-adjusted p <0.05; for number of HG upregulated genes downregulated by both C30 and C38: THP1, FC≥1.5 & FDR<5%; for functions of downregulated genes (Gene ontology analysis) / normalized enrichment score (NES), HG-downregulated genes (GSEA) / normalized enrichment score (NES), HG-upregulated genes (GSEA): THP1 in HG; for normalized enrichment score (NES), HG-downregulated genes (GSEA) / normalized enrichment score (NES), HG-upregulated genes (GSEA): with versus without compound. Here is the method: FIGS. 10A-10C. C30 and C38 inhibit the same subset of genes induced by high glucose (HG). THP1 cell were cultured in RPMI 1640 medium under 25 mM glucose for 72 hours with […] C30 or C38. Total RNA was prepared and sent for RNA-seq. Differential expression analysis was conducted as described in the Methods. […] FIG. 10A: Overlap between HG-induce genes and C30-inhibited genes in THP1 cells. FIG. 10B: Overlap between HG-induce genes and C38-inhibited genes in THP1 cells. FIG. 10C: Overlap between common genes from FIG. 10A (60 genes) and common genes from FIG. 10B (64 genes).
FIGS. 11A-11B. FIG. 11A: Heatmap of 60 high glucose-responsive and C30/C38-inhibited genes. Differential expression was calculated using these counts with edgeR (5, 6) version 3.0. After correcting for differences in library sizes, a fold change of >1.5 and a p-value of <0.05 were applied to select expressed genes. Overlapped genes were used for generating heatmap using Java TreeView. NG: THP1 under 5 mM glucose; HG: THP1, 25 mM glucose; C30: THP1, 25 mM glucose, 5 uM C30; C38: THP1, 25 mM glucose, 5 uM C38. All are replicates. From top to bottom: HSD11B1, EGR1, NFE2, CCL2, TIFAB, SH2D2A, UHRF1, CD52, TIMP3, TNF, S100P, PAQR4, LY6E, VPS9D-AS, RNASE3, MIR4258, GAS6, LIMD2, MBOAT7, CFD, PKMYT1, CHAC1, MFNG, DEFB1, ICAM2, NT5DC2, GPR35, HINT2, SEPT5-GP1BB, NRSN2, CDH24, SLC37A2, ADAT3, LST1, SPNS3, LTB, H2AFX, FUOM, FAM163A, BATF3, TMEM160, CITED4, MIR3661, TNFSF14, SLC6A9, TONSL, AVEN, SUSD3, TSPO, DDIT4, CKB, SLC22A31, HAAO, MF5SD3, SLC38A5, SIGMAR1, RGMA, DNPH1, ADGRE5, C20orf24, GATA2, RAB37, GDPD5, GAREM2, PIGQ, IMPA2, CRYBB2P1, UCP2, RELB, FOXL2, STC2, HOXA11-AS, MIR1282, RTN2, ZNF511, STARD10, NRM, NF2, ITGB7, POMGNT, KLF10, KLF2, NECAB2, C6orf223, IGFBP4, ACP2, TMEM161A, RHBDD2, YDJC, G0S2, FAM20C, TKTL1, PDIA3P1, HCST, FBXL15, LINC00116, FLNA, TXNIP, MIR3687-1, ARRDC4.
FIG. 21. Volcano plots on gene expression changes induced by TXNIP inhibitors (C30 or C38) under high glucose (HG) conditions in THP1 cells. Gene expression in THP cells grown in HG were treated with and without C30 or C38 and profiled by RNAseq. Expression of RefSeq genes with rpkm≥5 in at least one sample were TMM-normalized and compared in cells treated with HG plus C30 or C38 (C30+HG or C38+HG) versus the cells treated with HG alone using edgeR (v 3.28.1). […] Each dot represents one gene with fold change (in log 2 format) in C30/C38+HG sample vs. HG as x-axis and significance level (in −log 10 format) as y-axis.
FIG. 22. Enriched BPs on DEGs induced by TXNIP inhibitors. […] The enriched BPs were identified at FDR<5% using enrichGO R package and up to 15 BPs with the most significant enrichment are shown as horizontal bar plots. In each bar, number of DEGs in the BP is presented by y-axis and the enrichment significance is represented by different grey-scale colors indicated in the color bar.
FIG. 24. Impact of C30/C38 treatment on HG-regulated genes by GSEA analysis. […] In the analysis for each treatment (C30 or C38), all the expressed genes were ranked based on the signed significance levels, −log10 Pvalue with signs determined by FC (positive if FC>1 and negative if FC<1), on each gene's expression difference between samples with and without treatment. The overall gene expression difference in THP1 cells (in HG condition) treated with or without C30/C38 on these two genesets were analyzed using pre-ranked GSEA analysis.
FIG. 25. […] All the expressed genes were ranked based on the signed significance levels of each gene's expression difference (C30+HG vs. HG). […] In the plot shown, each bubble represents one geneset. […] Genesets related to BPs are represented by solid black bubbles and related to HG regulated genesets are shown as hollow black bubbles.
FIG. 26. […] All the expressed genes were ranked based on the signed significance levels of each gene's expression difference (C38+HG vs. HG). […] In the plot, each bubble represents one geneset. […]

Turning to `COc1cc(N2CC[C@@H](c3ccc4ccccc4c3)[C@H](O)C2)nc(N)n1` [Compound C30], in the assay with TXNIP mRNA, the “TXNIP mRNA levels” value was “decreased TXNIP mRNA levels”. In the assay on THP1 cells, the “biological processes (BPs) suppressed (GSEA)” value is listed as “strongly suppresses BPs related to DNA replication, cell cycle, lipopolysaccharide metabolic process”; the “number of downregulated genes, compound+HG versus HG” value was 571 genes; the “number of upregulated genes, compound+HG versus HG” value was determined as 746 genes; the “rank of TXNIP gene among differentially expressed genes” value is reported as “most-significantly downregulated gene”. In addition, in the assay with THP1 cells, the “number of HG-induced genes inhibited by the compound (overlap)” value is on record as 60 genes; the “number of HG upregulated genes downregulated by both C30 and C38” value stood at 23 genes; the “functions of downregulated genes (Gene ontology analysis)” value is listed as “substantially inhibit functions related to immune/inflammation response”; the “normalized enrichment score (NES), HG-downregulated genes (GSEA)” value was found to be 1.63. In addition, the “normalized enrichment score (NES), HG-upregulated genes (GSEA)” value in the assay on THP1 cells is −1.84.

For `c1ccc(CCNc2ncnc3c2oc2ccccc23)cc1` [Compound C38], the “TXNIP mRNA levels” value with TXNIP mRNA was “decreased TXNIP mRNA levels”. In addition, in the assay on THP1 cells, the “biological processes (BPs) suppressed (GSEA)” value is reported as “suppressing BPs involved in metabolic process, DNA replication, immune response, splicing”; the “number of downregulated genes, compound+HG versus HG” value is 537 genes; the “number of upregulated genes, compound+HG versus HG” value came out at 741 genes; the “rank of TXNIP gene among differentially expressed genes” value was “most-significantly downregulated gene”. In the assay on THP1 cells, the “number of HG-induced genes inhibited by the compound (overlap)” value came to 64 genes; the “number of HG upregulated genes downregulated by both C30 and C38” value was determined as 23 genes; the “functions of downregulated genes (Gene ontology analysis)” value is given as “substantially inhibit functions related to immune/inflammation response”; the “normalized enrichment score (NES), HG-downregulated genes (GSEA)” value is given as 1.83. Moreover, the “normalized enrichment score (NES), HG-upregulated genes (GSEA)” value with THP1 cells was −1.98.
